# Experimental data taken from US20200354426A1 (MEDIMMUNE LIMITED, priority 2016, published 2020).
# Numbered stars: 1 amine (or outer) side, 2 acyl side, 3 side chain; on linkers, the order of the positions; unused ones are H or OH. Side chains are listed from the residue outwards. Peptide text beside a SMILES is read from it. * marks the point of attachment. γGlu = O=C(O)[C@H](CCC(=O)[*:2])N[*:1]; Palmitoyl = CCCCCCCCCCCCCCCC(=O)*
# Key:
# Mouse GLP1R = target: T1, Mouse GLP1R (Mus musculus, UniProt O35659); test: cAMP assay in 3.2% mouse serum albumin (assay 2); type: cell-based
# T1 construct: expressed in transfected cells
# T1 sequence (O35659 22-463): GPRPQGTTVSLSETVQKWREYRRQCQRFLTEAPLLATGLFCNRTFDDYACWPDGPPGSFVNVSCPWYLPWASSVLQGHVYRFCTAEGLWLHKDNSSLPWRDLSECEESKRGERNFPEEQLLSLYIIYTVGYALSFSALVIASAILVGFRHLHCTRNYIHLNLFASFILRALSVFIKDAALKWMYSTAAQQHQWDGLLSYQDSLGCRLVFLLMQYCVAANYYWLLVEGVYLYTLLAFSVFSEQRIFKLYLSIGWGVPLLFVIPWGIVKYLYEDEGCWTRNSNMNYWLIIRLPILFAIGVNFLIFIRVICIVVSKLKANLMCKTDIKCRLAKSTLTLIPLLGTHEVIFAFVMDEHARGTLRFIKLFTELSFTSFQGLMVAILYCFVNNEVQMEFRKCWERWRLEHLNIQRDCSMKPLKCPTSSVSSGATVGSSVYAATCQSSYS
# Protocol: Cryopreserved cell stocks were prepared in 1× cell freezing medium-DMSO serum free (Sigma Aldrich) at 2×10^7/vial and stored at −80° C. […] Peptides were serially diluted in DMSO and then diluted 100 fold into DMEM containing serum albumin at stated final concentration. […] Cells were added to the assay plates and incubated for 30 min at room temperature. Following incubation the assay was stopped and cAMP levels measured using the HTRF® dynamic d2 cAMP assay kit available from CisBio Bioassays, as per the manufacture's guidelines. Plates were read on Perkin Elmer ENVISION® fluorescence plate readers. Human and rat serum albumin were purchased from Sigma Aldrich and mouse serum albumin from Equitech Bio Ltd.
# Data was transformed to % Delta F as described in manufacturer's guidelines and analysed by 4-parameter logistic fit to determine EC50 values. […] For instance. […] To compare the balance of activities at the GLP1R and GlucR between different peptides and across different conditions, these can be correlated using the calculation below, where the EC50's are related to those of the natural ligands.
# Mouse GlucR = target: T2, Mouse GlucR (Mus musculus, UniProt Q61606); test: cAMP assay in 3.2% mouse serum albumin (assay 2); type: cell-based; settings: relative potencies vs natural ligands
# T2 construct: expressed in transfected cells
# [1] = Stability testing of peptides in plasma; type: in vitro ADME, rat
# Protocol: The stability in plasma of the peptideS […], […], […] and […] was determined as follows. […] The spiked plasma samples were gently mixed and allowed to equilibrate for about 5 minutes before start of experiment. The plasma samples were incubated for 48 hours in a GalaxyR CO2 incubator at 37° C. […] The samples were stored at -70° C. until analysis. Plasma samples were assayed as follows. […] After mixing and centrifugation, 100 μl the supernatant was transferred to a new plate and 1 μl was injected onto an analytical column. The analysis was performed using a μLC-system ([…]) coupled to a medium high resolution mass spectrometer (Perkin Elmer PenTOF) with positive electrospray ionisation. […] Flow: 0.1 ml/min using a slow reversed phase gradient. […] Cleavage products arise from the action of the protease DPP IV in plasma. Both the degradation of the peptides and formation of peptide products were reported in percentage of the initial peptide concentration. Peaks were integrated and % remaining peptide was calculated: […] Levels of deamidation and DPP IV cleavage were low for […] and […].
# [2] = Peptide solubility in isotonic formulations (A280); type: physicochemical
# Protocol: Default Formulation (DF)=0.1 M Tris pH 7.5, 150 mM Mannitol. Final formulation pH=7.2 • 2. Back up formulation t (BF)=0.05M Tris, 50 mM Arginine/Proline. Final formulation pH=9.0 • 3. […] Final formulation pH=7.0
# Human GLP1R = Human GLP1R (Homo sapiens, UniProt P43220); test: cell-based
# [3] = test system: diet induced obesity (DIO) mouse model; test: Diet induced obesity (DIO) mouse model, study B; type: in vivo; settings: for HOMA / BeHy / FGF21 / Hepatic TG / Plasma Cholesterol / Plasma TG: day 14
# Excerpt: Female C57/B16JHsdOla (obtained from Harlan Laboratories. UK) were started on a high fat diet of D12492 (Research Diets, NJ, USA) and a chocolate confection, delicato ball (Delicata Bakverk, Sweden) at 9-11 weeks of age, and were maintained on the diet for 16 weeks prior to arrival to the animal facility, during a three week acclimation period and during drug treatment, caloric content of the two components of the diet is shown in Table 11. The mice were divided into 9 groups (n=5-6), and treatment was started at 29 weeks of age.
# The body weight of the animals was monitored daily throughout the dosing period. At day 14, blood samples for the measurement of plasma glucose and insulin from conscious mice were obtained after a 4-hour fasting period. Mice were then anaesthetized using isoflourane and terminal blood was collected from the capillary bed behind the eye. The following parameters were measured: blood chemistry measurements of triglycerides, total cholesterol, non-esterified fatty acids (NEFA), beta-hydroxybutyrate and fibroblast growth factor 21 (FGF21) (Table 16 and Table 17 below).
# Human GLP1R, sequence (P43220 24-463): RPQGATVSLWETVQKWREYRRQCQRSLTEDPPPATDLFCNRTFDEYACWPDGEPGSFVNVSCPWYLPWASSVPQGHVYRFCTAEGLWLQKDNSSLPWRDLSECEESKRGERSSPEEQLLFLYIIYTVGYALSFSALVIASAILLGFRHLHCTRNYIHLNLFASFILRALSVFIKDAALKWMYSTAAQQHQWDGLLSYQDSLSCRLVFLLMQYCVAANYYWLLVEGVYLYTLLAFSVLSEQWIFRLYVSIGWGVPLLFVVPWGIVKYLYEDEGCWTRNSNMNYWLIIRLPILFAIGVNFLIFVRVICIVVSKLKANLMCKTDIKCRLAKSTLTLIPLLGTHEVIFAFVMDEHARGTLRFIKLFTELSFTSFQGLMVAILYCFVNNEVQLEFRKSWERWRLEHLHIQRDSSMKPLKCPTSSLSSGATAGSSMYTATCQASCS
# T2 sequence (Q61606 27-485): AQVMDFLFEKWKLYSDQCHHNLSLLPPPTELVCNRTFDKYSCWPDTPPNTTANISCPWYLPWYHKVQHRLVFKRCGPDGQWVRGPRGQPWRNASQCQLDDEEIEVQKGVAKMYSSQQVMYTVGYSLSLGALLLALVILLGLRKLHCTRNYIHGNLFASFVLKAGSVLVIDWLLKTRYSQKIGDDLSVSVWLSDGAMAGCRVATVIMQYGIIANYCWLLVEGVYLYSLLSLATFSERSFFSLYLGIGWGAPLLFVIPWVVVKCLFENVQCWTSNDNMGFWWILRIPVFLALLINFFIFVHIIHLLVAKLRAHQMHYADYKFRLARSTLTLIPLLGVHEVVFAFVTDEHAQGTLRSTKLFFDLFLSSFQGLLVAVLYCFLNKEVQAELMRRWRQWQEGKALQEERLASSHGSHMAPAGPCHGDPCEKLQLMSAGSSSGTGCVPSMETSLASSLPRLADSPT
compound,measurement,setting,value
CCCCCCCCCCCCCCCC(=O)N[C@@H](CCC(=O)NCCCC[C@H](NC(=O)[C@H](CCCCN)NC(=O)[C@H](CO)NC(=O)[C@H](Cc1ccc(O)cc1)NC(=O)[C@H](CC(=O)O)NC(=O)[C@H](CO)NC(=O)[C@@H](NC(=O)[C@H](Cc1ccccc1)NC(=O)[C@@H](NC(=O)CNC(=O)[C@H](CCC(N)=O)NC(=O)[C@H](CO)NC(=O)[C@@H](N)Cc1c[nH]cn1)[C@@H](C)O)[C@@H](C)O)C(=O)N[C@@H](CC(C)C)C(=O)N[C@@H](CC(=O)O)C(=O)N[C@@H](CO)C(=O)N[C@@H](CCC(=O)O)C(=O)N[C@@H](CCCNC(=N)N)C(=O)N[C@@H](C)C(=O)N[C@@H](CCCNC(=N)N)C(=O)N[C@@H](CC(=O)O)C(=O)N[C@@H](Cc1ccccc1)C(=O)N[C@H](C(=O)N[C@@H](C)C(=O)N[C@@H](Cc1c[nH]c2ccccc12)C(=O)N[C@@H](CC(C)C)C(=O)N[C@H](C(=O)N[C@@H](C)C(=O)NCC(=O)NCC(N)=O)C(C)C)C(C)C)C(=O)O [Peptide G730] (H-HSQGTFTSDYSKK([γGlu-Palmitoyl])LDSERARDFVAWLVAGG-NH2; N-terminus assumed),EC50,Mouse GLP1R,1.1 nM
same,Mouse GlucR/GLP1R Ratio,Mouse GlucR,0.04
same,% +1 prod,[1],58%
same,% DPP cleaved product/+1 DPP cleaved product,[1],2%
same,"remaining at 24 h, 2 μmol/L","[1]; rat, plasma",24%
same,solubility,"[2]; Default Formulation (DF), isotonic, DF = 0.1 M Tris pH 7.5, 150 mM Mannitol",≥ 5000 µg/mL
same,Formulation Concentration,"[2]; Formulation DF, by A280 nm",5 mg/mL
same,10 mg/ml solubility (BF2),[2]; yes/no,no
same,EC50,"Human GLP1R; EC50 at the GLP1R at 0% HSA, calculated from variation in cAMP generation with HSA concentration",0.007 nM
same,EC50,"Human GLP1R; Human GLP1R EC50, 4.4% human serum albumin",0.455 nM
L-Histidyl-L-seryl-L-glutaminylglycyl-L-threonyl-L-phenylalanyl-L-threonyl-L-seryl-L-alpha-aspartyl-(N6-[N-(1-oxohexadecyl)-L-gamma-gutamyl])L-lysy-L-sery-L-alpha-glutamyl-L-tyrosyl-L-leucyl-L-alpha-aspartyl-L-seryl-L-alpha-glutamyl-L-arginyl-L-alanyl-L-arginyl-L-alpha-L-aspartyl-L-phenylalanyl-L-valyl-L-alanyl-L-tryptophyl-L-leucyl-L-alpha-glutamyl-L-alanylglycylglycine [Peptide G933],BW day 14 (% change of vehicle mean),[3]; 5 nmol/kg sc twice daily 14 days,−11%
same,HOMA,[3]; 5 nmol/kg sc twice daily,3.31
same,BW day 14 (% change of vehicle mean),[3]; 10 nmol/kg sc twice daily 14 days,−19%
same,HOMA,[3]; 10 nmol/kg sc twice daily,1.98
same,body weight over the 14 day dosing period,"[3]; DIO mice, FIGS. 5-8",dose dependent and continuous weight loss
same,BeHy,[3]; dose in Table 17: 5 nmol/kg,593.56 µmol/L
same,FGF21,[3]; dose in Table 17: 5 nmol/kg,4459 pg/mL
same,Hepatic TG,[3]; dose in Table 17: 5 nmol/kg,14.7 g TB/100 g tissue
same,Plasma Cholesterol,[3]; dose in Table 17: 5 nmol/kg,2.32 mM
same,Plasma TG,[3]; dose in Table 17: 5 nmol/kg,0.16 mM
same,BeHy,[3]; dose in Table 17: 50 nmol/kg,673.08 µmol/L
same,FGF21,[3]; dose in Table 17: 50 nmol/kg,2582 pg/mL
same,Hepatic TG,[3]; dose in Table 17: 50 nmol/kg,13.3 g TB/100 g tissue
same,Plasma Cholesterol,[3]; dose in Table 17: 50 nmol/kg,2.88 mM
same,Plasma TG,[3]; dose in Table 17: 50 nmol/kg,0.39 mM
